Source: patent publication US10568921B1, “Extract of Vicia faba beans” (priority 2018, dated 2020)
Where “and” joins values, the source holds several entries; their conditions need not be identical. Equal values may be shown once.

System: strychnine-induced convulsions
Assay: Strychnine-induced convulsions in mice, i.p. pretreatment with test substance
Type: in vivo, BALB/c mice
[1] = 50 mg/kg i.p. + strychnine 0.45 mg/kg i.p., individual mice No. 1-10

In the case of CCC1(c2ccccc2)C(=O)NC(=O)NC1=O [Phenobarbitone, phenobarbitone], the “Survival recovered time after strychnine injection” value [1] was 80 minutes (3×) and 90 minutes and 70 minutes (3×) and 75 minutes (3×), the “Time to first convulsion” value [1] was 5 minutes and 7 minutes (3×) and 6.5 minutes and 8 minutes (2×) and 9 minutes (2×) and 10 minutes and the “Survival recovered time after strychnine injection, mean” value (50 mg/kg i.p. + strychnine 0.45 mg/kg i.p., mean of 10 mice) was 76.5 ± 5.58 min. For the same molecule, the “Protection against strychnine-induced convulsions (in words)” value (50 mg/kg i.p. before strychnine (A-1 twenty minutes, phenobarbitone 15 minutes), mice) was “protected against the strychnine-induced convulsions, completely”.
